Source: article PMC11876601 (Molecular Systems Biology, 2025)
Like-named read-outs stand apart in the source and are kept apart here.

Legend:
[1] = test system: nine PDAC patient-derived organoids (PDOs); experiment: PDO viability assay (CellTiter-Glo, 72 h), panel; type: cell-based; conditions: Homo sapiens; range among the nine PDOs; read-out: EC50 (monotherapy)
Method: Primary patient-derived PDAC organoid (PDO) experiments were performed in the laboratories of Prof. Maximilian Reichert (University Hospital of the TU Munich, Germany, PDO set 1: B250, B535, B678) and Prof. Jens T. Siveke (University Hospital Essen, Germany; PDO set 2: UME008, UME012, UME051, UME053, UME060, UME061). PDOs were generated from surgical resection, EUS-guided fine needle biopsy (EUS-FNB), or ascites (Appendix Table S2). Surgical specimens were first minced with a sterile scalpel and subsequently washed with Anti-Anti solution and washing medium (PDO set 1), or vice versa (PDO set 2; Appendix Table S3). Biopsy samples were directly washed with an Anti-Anti solution and washing medium. Samples were digested using 1 ml of digestion medium at 37 °C while shaking, and the enzymatic reaction was stopped by adding 15 ml of washing medium (Appendix Table S3). […]
For viability assays in PDOs, confluent organoids were removed from medium, and Matrigel was dissolved by adding 200 μl (PDO set 1) or 2 ml (PDO set 2) of Cell Recovery Solution (Corning), and additionally 500 μl of DPBS (PDO set 1 only). […] After 72 h, cell viability was measured using the CellTiter-Glo Luminescent Cell Viability Assay (Promega) diluted 1:5 in the final volume of the well. […]

FAMPAC cells = experiment: Drug combination viability screen (ATPlite, 72 h); type: cell-based, human; set-up: AUC: unit not given beside the values; Reponse: unit not given here; conditions: for EC50: Homo sapiens;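 on AUC: area under vehicle-normalized viability curve scaled 0 to 100 percent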;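 on Curve bottom: fraction of vehicle control viability from four-parameter log-logistic fit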
Method: (§1) Cell viability was assessed by measuring ATP levels to indicate metabolic activity.
(§2) Afterward, small amounts were transferred to 384-well intermediate plates (Greiner Bio-One GmbH, Germany). […] For drug combination screening, 1000 to 5000 cells were seeded into 384-well plates (CulturPlate™, Perkin Elmer, MA, USA) using a Multidrop™ Combi Reagent Dispenser (Thermo Scientific, MA, USA) in 50 µl medium per well 24 h prior to drug treatment (seeding densities see Appendix Table S1). […] The final DMSO concentration in each well was 0.2%. […] Eight wells per plate without library drug served as negative controls, and sixteen wells per plate containing 5 µM Staurosporine served as positive controls. Control plates not containing any drug were used to correct for incubation effects, and data quality was assessed by calculation of Z-prime of positive and negative controls according to1 Z-prime=1−3SDpos+3SDneg/[…] where SD is the standard deviation. […] Dose–response curves from the experimental and hypothetical data were compared, and shifts in AUC were used to describe combination effects (AUC∆ = AUChypothetical − AUCexperimental). […] Only combinations with R^2 > 0.8 in both conditions were considered in the synergy analysis.

Dan-G cells = experiment: Drug combination viability screen (ATPlite, 72 h); type: cell-based, human; set-up: AUC: unit not given beside the values; Reponse: unit not given here; conditions: for EC50: Homo sapiens;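 on AUC: area under vehicle-normalized viability curve scaled 0 to 100 percent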;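 on Curve bottom: fraction of vehicle control viability from four-parameter log-logistic fit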
Method: as §1, §2

Capan-1 cells = experiment: Drug combination viability screen (ATPlite, 72 h); type: cell-based, human; set-up: AUC: unit not given beside the values; Reponse: unit not given here; conditions: for EC50: Homo sapiens, CAPAN-1;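 on AUC: area under vehicle-normalized viability curve scaled 0 to 100 percent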;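 on Curve bottom: fraction of vehicle control viability from four-parameter log-logistic fit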
Method: as §1, §2

SMILES: Nc1ccn([C@@H]2O[C@H](CO)[C@@H](O)C2(F)F)c(=O)n1 [GEM, Gemcitabine]
- EC50 [1]: 3 to 285 nM
- Reponse (FAMPAC cells; FAMPAC, R1, 13.72 nM): 385920
- Reponse (FAMPAC cells; FAMPAC, R1, 41.15 nM): 215680
- Reponse (FAMPAC cells; FAMPAC, R1, 123.46 nM): 157840
- Reponse (FAMPAC cells; FAMPAC, R1, 370.37 nM): 175320
- Reponse (FAMPAC cells; FAMPAC, R1, 1111.11 nM): 225320
- Reponse (FAMPAC cells; FAMPAC, R1, 3333.33 nM): 238760
- Reponse (FAMPAC cells; FAMPAC, R1, 10000 nM): 195520
- Reponse (FAMPAC cells; FAMPAC, R2, 13.72 nM): 606360
- Reponse (FAMPAC cells; FAMPAC, R2, 41.15 nM): 377000
- Reponse (FAMPAC cells; FAMPAC, R2, 123.46 nM): 333400
- Reponse (FAMPAC cells; FAMPAC, R2, 370.37 nM): 317560
- Reponse (FAMPAC cells; FAMPAC, R2, 1111.11 nM): 328240
- Reponse (FAMPAC cells; FAMPAC, R2, 3333.33 nM): 349400
- Reponse (FAMPAC cells; FAMPAC, R2, 10000 nM): 314920
- Curve bottom (FAMPAC cells; FAMPAC, GEM curve fit): 0.05
- Curve effect size (FAMPAC cells; FAMPAC, GEM curve fit): 0.95
- Curve slope (FAMPAC cells; FAMPAC, GEM curve fit): 2.01
- Curve top (FAMPAC cells; FAMPAC, GEM curve fit): 0.99
- AUC (FAMPAC cells; FAMPAC, GEM curve fit, in %): 25.43
- EC50 (FAMPAC cells; read-out: EC50): 1.71 nM
- EC50 (FAMPAC cells; read-out: pEC50 (converted)): 1.7 nM
- Reponse (Dan-G cells; Dan-G, R1, 13.72 nM): 414760
- Reponse (Dan-G cells; Dan-G, R1, 41.15 nM): 446720
- Reponse (Dan-G cells; Dan-G, R1, 123.46 nM): 403560
- Reponse (Dan-G cells; Dan-G, R1, 370.37 nM): 418200
- Reponse (Dan-G cells; Dan-G, R1, 1111.11 nM): 322600
- Reponse (Dan-G cells; Dan-G, R1, 3333.33 nM): 330080
- Reponse (Dan-G cells; Dan-G, R1, 10000 nM): 365160
- Reponse (Dan-G cells; Dan-G, R2, 13.72 nM): 688800
- Reponse (Dan-G cells; Dan-G, R2, 41.15 nM): 616960
- Reponse (Dan-G cells; Dan-G, R2, 123.46 nM): 613120
- Reponse (Dan-G cells; Dan-G, R2, 370.37 nM): 664240
- Reponse (Dan-G cells; Dan-G, R2, 1111.11 nM): 563000
- Reponse (Dan-G cells; Dan-G, R2, 3333.33 nM): 536360
- Reponse (Dan-G cells; Dan-G, R2, 10000 nM): 535080
- Curve bottom (Dan-G cells; Dan-G, GEM curve fit): 0.11
- Curve effect size (Dan-G cells; Dan-G, GEM curve fit): 0.89
- Curve slope (Dan-G cells; Dan-G, GEM curve fit): 3.23
- Curve top (Dan-G cells; Dan-G, GEM curve fit): 0.99
- AUC (Dan-G cells; Dan-G, GEM curve fit, in %): 25.98
- EC50 (Dan-G cells; read-out: EC50): 1.1 nM
- EC50 (Dan-G cells; read-out: pEC50 (converted)): 1.1 nM
- Reponse (Capan-1 cells; Capan-1, R1, 13.72 nM): 1419520
- Reponse (Capan-1 cells; Capan-1, R1, 41.15 nM): 1052200
- Reponse (Capan-1 cells; Capan-1, R1, 123.46 nM): 1039880
- Reponse (Capan-1 cells; Capan-1, R1, 370.37 nM): 891520
- Reponse (Capan-1 cells; Capan-1, R1, 1111.11 nM): 819880
- Reponse (Capan-1 cells; Capan-1, R1, 3333.33 nM): 826400
- Reponse (Capan-1 cells; Capan-1, R1, 10000 nM): 882520
- Reponse (Capan-1 cells; Capan-1, R2, 13.72 nM): 1725080
- Reponse (Capan-1 cells; Capan-1, R2, 41.15 nM): 1554080
- Reponse (Capan-1 cells; Capan-1, R2, 123.46 nM): 1198840
- Reponse (Capan-1 cells; Capan-1, R2, 370.37 nM): 1201400
- Reponse (Capan-1 cells; Capan-1, R2, 1111.11 nM): 991280
- Reponse (Capan-1 cells; Capan-1, R2, 3333.33 nM): 798760
- Reponse (Capan-1 cells; Capan-1, R2, 10000 nM): 1054200
- Curve bottom (Capan-1 cells; Capan-1, GEM curve fit): 0.16
- Curve effect size (Capan-1 cells; Capan-1, GEM curve fit): 0.84
- Curve slope (Capan-1 cells; Capan-1, GEM curve fit): 1.86
- Curve top (Capan-1 cells; Capan-1, GEM curve fit): 1.03
- AUC (Capan-1 cells; Capan-1, GEM curve fit, in %): 31.71
- EC50 (Capan-1 cells; read-out: EC50): 1.26 nM
- EC50 (Capan-1 cells; read-out: pEC50 (converted)): 1.26 nM
